Experimental findings from patent US10081628B2, “Apoptosis-inducing agents for the treatment of cancer and immune and autoimmune diseases” (AbbVie Inc., priority 2013, dated 2018) are described below.

Where two headings read alike, the source gives them in different places.

One experiment deals with lymphocytes. Briefly: Lymphocyte reduction in C57BL/6 mice. It counts as in vivo. Particulars: Mus musculus, ip. As to the method:
An experiment was performed to evaluate the effect of Bcl-2 selective/Bcl-xL sparing compounds on immune cells and platelets, as evaluated in C57Bl/6 mice. Mice were treated four days with compounds (doses of 30 mg/kg, administered by intraperitoneal injection every day) and cell numbers were measured with a Cell Dyn hematology analyzer 24 hours after the first and last doses. Exposure of the compound (area under the curve) was calculated by using time points of 1, 6, 10 and 24 hours after the last dose.

In a further experiment the test system is RS4;11 cells. Briefly: RS4;11 cell viability assay (CellTiter Glo). Type of experiment: cell-based. Particulars: 10% human serum, 48 hours. The text has this: The acute lymphoblastic leukemia (ALL) cell line RS4;11 was used as the primary human cell line to assess the cellular activity of Bcl-2 selective agents in vitro and their efficacy in vivo. Previous studies have shown by BH3 profiling, a mitochondrial assay that classifies blocks in the intrinsic apoptotic pathway, that RS4;11 cells were highly dependant on BCL-2 for survival and sensitive to the Bcl-2 family member inhibitor ABT-737 (Blood, 2008, Vol. 111, 2300-2309).
RS4;11 cells were cultured in RPMI-1640 supplemented with 2 mM L-glutamine, 10% FBS, 1 mM sodium pyruvate, 2 mM HEPES, 1% penicillin/streptomycin (Invitrogen), 4.5 g/L glucose and maintained at 37 C containing 5% CO2. To test for the cellular activity of compounds in vitro, cells were treated at 50,000 cells per well in 96-well microtiter plates in the presence of 10% human serum for 48 hours in a humidified chamber with 5% CO2. Cell cytotoxicity EC50 values were assessed using CellTiter Glo (Promega) according to the manufacturer's recommendations. The EC50 values were determined as a percentage of viable cells following treatment compared to the untreated control cells.
In general terms: ATP-based viability assays read luminescence as a measure of living cells.

The next experiment deals with GST-Bcl-2 (Homo sapiens, UniProt P10415). The experiment is described as follows: TR-FRET Bcl-2 binding assay (F-Bak peptide probe). Particulars: GST-Bcl-2 1 nM, F-Bak peptide probe 100 nM, Tb-anti-GST 1 nM; Wang's equation; '<' = below limit of detection. As to the method:
Determination of the utility of compounds of this invention as binders to and inhibitors of anti-apoptotic Bcl-2 proteins was performed using the Time Resolved-Fluorescence Resonance Energy Transfer (TR-FRET) Assay. Tb-anti-GST antibody was purchased from Invitrogen (Catalog No. PV4216).
Representative compounds were serially diluted in dimethyl sulfoxide (DMSO) starting at 50 μM (2× starting concentration; 10% DMSO) and 10 μL were transferred into a 384-well plate. The samples are then mixed on a shaker for 1 minute and incubated for an additional 3 hours at room temperature. For each assay, the probe/antibody and protein/probe/antibody were included on each assay plate as negative and positive controls, respectively. Fluorescence was measured on the Envision (Perkin Elmer) using a 340/35 nm excitation filter and 520/525 (F-Bak peptide) and 495/510 nm (Tb-labeled […] antibody) emission filters. Dissociation constants (Ki) are shown in TABLE 2 below and were determined using Wang's equation (Wang Z.-X., An Exact Mathematical Expression For Describing Competitive Binding Of Two Different Ligands To A Protein Molecule. FEBS Lett. 1995, 360:111-4).
The samples were then mixed on a shaker for 1 minute and incubated for an additional 3 hours at room temperature. For each assay, the probe/antibody and protein/probe/antibody were included on each assay plate as negative and positive controls, respectively. Fluorescence was measured on the Envision (Perkin Elmer) using a 340/35 nm excitation filter and 520/525 (F-Bak peptide) and 495/510 nm (Tb-labeled anti-Histidine antibody) emission filters.
Inhibition constants (Ki) for compounds were determined using Wang's equation (Wang Zx. An Exact Mathematical Expression For Describing Competitive Binding Of Two Different Ligands To A Protein Molecule. FEBS Lett. 1995, 360:111-4).
The inhibition constant (Ki) is the dissociation constant of an enzyme-inhibitor complex or a protein/small molecule complex, wherein the small molecule is inhibiting binding of one protein to another protein or peptide. So a large Ki value indicates a low binding affinity and a small Ki value indicates a high binding affinity. […] The compounds are therefore expected to have utility in treatment of diseases during which anti-apoptotic Bcl-2 protein is expressed. Biological Data
(TR-FRET usually uses a lanthanide donor and a delayed reading to cut background.)

The mark [1] stands for this setting: 30 mg/kg intraperitoneal every day for four days, 24 hours after the last dose, read-out: Lymphocyte reduction % inh. day 4.
[2] abbreviates: 30 mg/kg intraperitoneal every day, 24 hours after the first dose, read-out: Lymphocyte reduction % inh. day 1.

GST-Bcl-2, sequence (P10415 whole entry): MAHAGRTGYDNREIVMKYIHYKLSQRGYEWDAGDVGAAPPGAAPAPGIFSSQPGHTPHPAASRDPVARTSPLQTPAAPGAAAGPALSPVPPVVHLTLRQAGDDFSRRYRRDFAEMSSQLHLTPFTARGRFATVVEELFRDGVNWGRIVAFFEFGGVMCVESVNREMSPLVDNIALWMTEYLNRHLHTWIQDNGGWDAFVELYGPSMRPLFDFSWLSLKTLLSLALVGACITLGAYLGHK

A word on the EC50: it is the concentration giving half of the maximal effect. Higher therefore signals a need for much substance. One may read the Ki as the dissociation constant of the complex between target and ligand, obtained from inhibition or displacement. As to `CC1(C)CCC(CN2CCN(c3ccc(C(=O)NS(=O)(=O)c4ccc(NC[C@@H]5COCCO5)c([N+](=O)[O-])c4)c(Oc4cnc5[nH]ccc5c4)c3)CC2)=C(c2ccc(Cl)cc2)C1` [Example 1, 4-(4-{[2-(4-chlorophenyl)-4,4-dimethylcyclohex-1-en-1-yl]methyl}piperazin-1-yl)-N-[(4-{[(2R)-1,4-dioxan-2-ylmethyl]amino}-3-nitrophenyl)sulfonyl]-2-(1H-pyrrolo[2,3-b]pyridin-5-yloxy)benzamide], the inhibition at 30 mg/kg in the experiment with lymphocytes (setting [1]) and in the experiment on lymphocytes (setting [2]) was 41% in each case. This compound also had an EC50 in the experiment on RS4;11 cells of 5.3 nM. Moreover, the inhibitory constant (Ki) at GST-Bcl-2 is less than 0.1 nM.

In the case of `C[C@@H](Nc1ccc(S(=O)(=O)NC(=O)c2ccc(N3CCN(CC4=C(c5ccc(Cl)cc5)CC(C)(C)CC4)CC3)cc2Oc2cnc3[nH]ccc3c2)cc1[N+](=O)[O-])C1CCOCC1` [Example 3, 4-(4-{[2-(4-chlorophenyl)-4,4-dimethylcyclohex-1-en-1-yl]methyl}piperazin-1-yl)-N-[(3-nitro-4-{[(1R)-1-(tetrahydro-2H-pyran-4-yl)ethyl]amino}phenyl)sulfonyl]-2-(1H-pyrrolo[2,3-b]pyridin-5-yloxy)benzamide], the inhibition at 30 mg/kg with lymphocytes (setting [1]) and with lymphocytes (setting [2]) was less than 15% each time. The EC50 in the experiment on RS4;11 cells worked out at 150 nM. Also, the Ki on GST-Bcl-2 is less than 0.1 nM.

For the compound `CC1(C)CCC(CN2CCN(c3ccc(C(=O)NS(=O)(=O)c4ccc(NC[C@H]5CC[C@@]6(CCCO6)CC5)c([N+](=O)[O-])c4)c(Oc4cnc5[nH]ccc5c4)c3)CC2)=C(c2ccc(Cl)cc2)C1` [Example 5, 4-(4-{[2-(4-chlorophenyl)-4,4-dimethylcyclohex-1-en-1-yl]methyl}piperazin-1-yl)-N-[(3-nitro-4-{[(5R,8R)-1-oxaspiro[4.5]dec-8-ylmethyl]amino}phenyl)sulfonyl]-2-(1H-pyrrolo[2,3-b]pyridin-5-yloxy)benzamide], the inhibition at 30 mg/kg in the experiment on lymphocytes (setting [1]) was found to be 45%; with lymphocytes (setting [2]), 47%. The compound further had a 50% effective concentration (EC50) in the experiment with RS4;11 cells of 5.2 nM. The compound further showed a Ki on GST-Bcl-2 of less than 0.1 nM.

Regarding `CC1(C)CCC(CN2CCN(c3ccc(C(=O)NS(=O)(=O)c4ccc(NCC5(O)CCOCC5)c([N+](=O)[O-])c4)c(Oc4cnc5[nH]ccc5c4)c3)CC2)=C(c2ccc(Cl)cc2)C1` [Example 6, 4-(4-{[2-(4-chlorophenyl)-4,4-dimethylcyclohex-1-en-1-yl]methyl}piperazin-1-yl)-N-[(4-{[(4-hydroxytetrahydro-2H-pyran-4-yl)methyl]amino}-3-nitrophenyl)sulfonyl]-2-(1H-pyrrolo[2,3-b]pyridin-5-yloxy)benzamide], the results for the inhibition at 30 mg/kg in the experiment with lymphocytes (setting [1]) and with lymphocytes (setting [2]) were 24% and less than 15%, respectively. The same compound showed a 50% effective concentration (EC50) with RS4;11 cells of 7.6 nM. The inhibitory constant (Ki) at GST-Bcl-2 was less than 0.1 nM.

Regarding `CC1(C)CCC(CN2CCN(c3ccc(C(=O)NS(=O)(=O)c4ccc(NC[C@H]5COCCO5)c([N+](=O)[O-])c4)c(Oc4cnc5[nH]ccc5c4)c3)CC2)=C(c2ccc(Cl)cc2)C1` [Example 9, 4-(4-{[2-(4-chlorophenyl)-4,4-dimethylcyclohex-1-en-1-yl]methyl}piperazin-1-yl)-N-[(4-{[(2S)-1,4-dioxan-2-ylmethyl]amino}-3-nitrophenyl)sulfonyl]-2-(1H-pyrrolo[2,3-b]pyridin-5-yloxy)benzamide], the inhibition at 30 mg/kg in the experiment with lymphocytes (setting [1]) was found to be 58%; with lymphocytes (setting [2]), 69%. For the same compound, the EC50 in the experiment with RS4;11 cells was 2.2 nM. At GST-Bcl-2, this compound yielded an inhibition constant (Ki) of less than 0.1 nM.

On to `CC1(C)CCC(CN2CCN(c3ccc(C(=O)NS(=O)(=O)c4ccc(NCC5(CO)CCOCC5)c([N+](=O)[O-])c4)c(Oc4cnc5[nH]ccc5c4)c3)CC2)=C(c2ccc(Cl)cc2)C1` [Example 10, 4-(4-{[2-(4-chlorophenyl)-4,4-dimethylcyclohex-1-en-1-yl]methyl}piperazin-1-yl)-N-{[4-({[4-(hydroxymethyl)tetrahydro-2H-pyran-4-yl]methyl}amino)-3-nitrophenyl]sulfonyl}-2-(1H-pyrrolo[2,3-b]pyridin-5-yloxy)benzamide], for which the inhibition at 30 mg/kg with lymphocytes (setting [1]) and with lymphocytes (setting [2]) was less than 15% each time. In the experiment with RS4;11 cells, this compound yielded an EC50 of 8.1 nM. In addition, the Ki on GST-Bcl-2 was less than 0.1 nM.

Consider `CC(C)(O)CCNc1ccc(S(=O)(=O)NC(=O)c2ccc(N3CCN(CC4=C(c5ccc(Cl)cc5)CC(C)(C)CC4)CC3)cc2Oc2cnc3[nH]ccc3c2)cc1[N+](=O)[O-]` [Example 12, 4-(4-{[2-(4-chlorophenyl)-4,4-dimethylcyclohex-1-en-1-yl]methyl}piperazin-1-yl)-N-({4-[(3-hydroxy-3-methylbutyl)amino]-3-nitrophenyl}sulfonyl)-2-(1H-pyrrolo[2,3-b]pyridin-5-yloxy)benzamide], for which the inhibition at 30 mg/kg came to 27% in the experiment on lymphocytes (setting [1]) and 41% with lymphocytes (setting [2]). This compound also showed an EC50 in the experiment on RS4;11 cells of 30 nM. Moreover, the Ki at GST-Bcl-2 is less than 0.1 nM.

In turn, `C[C@H]1CO[C@@H](CNc2ccc(S(=O)(=O)NC(=O)c3ccc(N4CCN(CC5=C(c6ccc(Cl)cc6)CC(C)(C)CC5)CC4)cc3Oc3cnc4[nH]ccc4c3)cc2[N+](=O)[O-])CO1` [Example 45, 4-(4-{[2-(4-chlorophenyl)-4,4-dimethylcyclohex-1-en-1-yl]methyl}piperazin-1-yl)-N-{[4-({[(2S,5S)-5-methyl-1,4-dioxan-2-yl]methyl}amino)-3-nitrophenyl]sulfonyl}-2-(1H-pyrrolo[2,3-b]pyridin-5-yloxy)benzamide] came in with an EC50 in the experiment on RS4;11 cells of 19 nM. For the same compound, the Ki at GST-Bcl-2 was less than 0.1 nM.

Regarding `CC(=O)N1CCC(CNc2ccc(S(=O)(=O)NC(=O)c3ccc(N4CCN(CC5=C(c6ccc(Cl)cc6)CC(C)(C)CC5)CC4)cc3Oc3cnc4[nH]ccc4c3)cc2[N+](=O)[O-])CC1` [Example 47, N-[(4-{[(1-acetylpiperidin-4-yl)methyl]amino}-3-nitrophenyl)sulfonyl]-4-(4-{[2-(4-chlorophenyl)-4,4-dimethylcyclohex-1-en-1-yl]methyl}piperazin-1-yl)-2-(1H-pyrrolo[2,3-b]pyridin-5-yloxy)benzamide], in the experiment with RS4;11 cells, the EC50 is 14 nM. The Ki on GST-Bcl-2 was less than 0.1 nM.

`CC1(C)CCC(CN2CCN(c3ccc(C(=O)NS(=O)(=O)c4ccc(NCC5COCCOC5)c([N+](=O)[O-])c4)c(Oc4cnc5[nH]ccc5c4)c3)CC2)=C(c2ccc(Cl)cc2)C1` [Example 51, 4-(4-{[2-(4-chlorophenyl)-4,4-dimethylcyclohex-1-en-1-yl]methyl}piperazin-1-yl)-N-({4-[(1,4-dioxepan-6-ylmethyl)amino]-3-nitrophenyl}sulfonyl)-2-(1H-pyrrolo[2,3-b]pyridin-5-yloxy)benzamide] displayed an EC50 with RS4;11 cells of 39 nM. This compound also returned a Ki on GST-Bcl-2 of less than 0.1 nM.

In turn, `CC1(C)CCC(CN2CCN(c3ccc(C(=O)NS(=O)(=O)c4ccc(NCC5CCOCC5)c([N+](=O)[O-])c4)c(Oc4cnc5[nH]ccc5c4)c3)CC2)=C(c2ccc(Cl)c(Cl)c2)C1` [Example 53, 4-(4-{[2-(3,4-dichlorophenyl)-4,4-dimethylcyclohex-1-en-1-yl]methyl}piperazin-1-yl)-N-({3-nitro-4-[(tetrahydro-2H-pyran-4-ylmethyl)amino]phenyl}sulfonyl)-2-(1H-pyrrolo[2,3-b]pyridin-5-yloxy)benzamide] displayed an EC50 in the experiment on RS4;11 cells of 46 nM. For the same compound, the inhibitory constant (Ki) on GST-Bcl-2 turned out to be 0.2 nM.
